From the NIST ThermoML archive (doi:10.1016/j.fluid.2017.09.019)
Numbers after ± are expanded uncertainties.

How the values were obtained:
[1] = Liquid; for viscosity / mass density: 101 kPa; for viscosity: Concentric cylinders viscometry; for mass density: Vibrating tube method; for vapor or sublimation pressure: Closed cell (Static) method
[2] = wn = mass fraction of the nth substance listed; details: 101 kPa, Liquid; for viscosity: Concentric cylinders viscometry; for mass density: Vibrating tube method

CC(O)CN(C)C (stereo not drawn) [1-(dimethylamino)-2-propanol]
[1]
Details | mass density [kg/m3] | vapor or sublimation pressure [kPa] | viscosity [mPa·s]
298.15 K | 845.4 ± 2.4 | – | 1.332 ± 0.1
298.49 K | – | 4.13 ± 2 | –
303.15 K | 840.3 ± 2.4 | – | 1.183 ± 0.1
303.88 K | – | 6.59 ± 2 | –
308.15 K | 835.5 ± 2.4 | – | 1.059 ± 0.1
308.43 K | – | 8.03 ± 2 | –
313.15 K | 830.7 ± 2.4 | – | 0.955 ± 0.1
313.34 K | – | 10.34 ± 2 | –
318.15 K | 825.8 ± 2.4 | – | 0.866 ± 0.1
318.26 K | – | 12.51 ± 2 | –
323.15 K | 820.9 ± 2.4 | – | 0.788 ± 0.1
323.6 K | – | 15.84 ± 2 | –
328.15 K | 816 ± 2.4 | – | 0.72 ± 0.1
328.26 K | – | 18.73 ± 2 | –
333.04 K | – | 23.06 ± 2 | –
333.15 K | 811.1 ± 2.4 | – | 0.662 ± 0.1

CN(CCO)CCO [N-methyldiethanolamine]
[1]
Details | mass density [kg/m3] | viscosity [mPa·s]
298.15 K | 1036.9 ± 2.4 | 77.29 ± 0.88
308.15 K | 1029.8 ± 2.4 | 44.99 ± 0.51
323.15 K | 1018.3 ± 2.4 | 22.6 ± 0.34

CN(CCO)CCO [N-methyldiethanolamine] + O
[2]
Details | mass density, 298.15 K [kg/m3] | mass density, 308.15 K [kg/m3] | mass density, 323.15 K [kg/m3] | viscosity, 298.15 K [mPa·s] | viscosity, 308.15 K [mPa·s] | viscosity, 323.15 K [mPa·s]
w1 = 0.2 | 1014.8 ± 2.4 | 1010.6 ± 2.4 | 1002.9 ± 2.4 | 1.932 ± 0.1 | 1.51 ± 0.1 | 1.061 ± 0.1
w1 = 0.3 | 1025.2 ± 2.4 | 1021.1 ± 2.4 | 1013.2 ± 2.4 | 3.081 ± 0.1 | 2.263 ± 0.1 | 1.521 ± 0.1
w1 = 1 | 1036.9 ± 2.4 | 1029.8 ± 2.4 | 1018.3 ± 2.4 | 77.29 ± 0.88 | 44.99 ± 0.51 | 22.6 ± 0.34
